Experimental data from patent US6514913B1, “Weed growth inhibitory compositions” (Marubeni Agrotec Corporation, priority 1998, dated 2003).

Tests used:
annual bluegrass [1] = assay: Pot test in greenhouse, weed growth inhibition (Test Example 1); type: in vivo, Poa annua L.; details: flowable of Preparation Example 3, soil surface one day after sowing, 30 days after treatment
Text: (§1) Plastic pots having a size of 100 m^2/3000 were filled with soil of an upland farm, and the surface of the soil was flattened. Then, the soil surfaces were sowed with weed seeds of annual bluegrass, foxtail, and flat-sedge. After sowing, the seeds were covered with soil to a height of about 5 mm. Also, the rhizomes of Cyperus brevifolius were buried to a depth of about 1 cm. One day after sowing, a predetermined amount of the flowable prepared by the method described in the Preparation Example 3 was applied to the soil surface in an amount of 250 ml/m^2 of dilution with water. Then, the pots were allowed to stand in the greenhouse, and sprinkled with water at the appropriate times. Thirty days after treatment with the composition, its growth inhibition effect was observed. The growth inhibition effect in the table was evaluated according to the following criteria:
(§2) Evaluation Criteria for Weed Growth Inhibition Effect: […]

Cyperus brevifolius = assay: as above; type: in vivo; details: flowable of Preparation Example 3, soil surface, rhizomes buried about 1 cm, 30 days after treatment
Text: as §1, §2

foxtail = assay: as above; type: in vivo; details: flowable of Preparation Example 3, soil surface one day after sowing, 30 days after treatment
Text: as §1, §2

flat-sedge = assay: as above; type: in vivo, Cyperus microiria; details: flowable of Preparation Example 3, soil surface one day after sowing, 30 days after treatment
Text: as §1, §2

South Japanese lawngrass = assay: Pot test in greenhouse, lawn phytotoxicity (Test Example 2); type: in vivo, Zoysia matrella; design: key: −:None; ±:Very slight; +:Slight; 2+:Moderate; 3+:Heavy; ×:Dead; details: flowable of Preparation Example 3 on bred lawn sod in pots, 30 days after treatment
Text: (§3) Plastic pots having a size of 100 m^2/5000 were filled with soil of an upland farm, and planted with a lawn sod withdrawn by a hole cutter from various bred turfs. The planted pots were bred and managed in a greenhouse for about 1 month, and then the lawn grasses were cut to the same height to use the pots as sample pots. On the day of the cutting, a predetermined amount of the flowable prepared by the method described in the Preparation Example 3 applied to the sample pots in an amount of 250 ml/m^2 of dilution with water. Then, the pots were allowed to stand in the greenhouse, and sprinkled with water at the appropriate times. Thirty days after treatment with the composition, its phytotoxicity to the lawn grasses was observed. Evaluations of the phytotoxicity to the lawn grasses in the table were made according to the following criteria:

Japanese lawngrass = assay: as above; type: in vivo, Zoysia japonica; design: key: −:None; ±:Very slight; +:Slight; 2+:Moderate; 3+:Heavy; ×:Dead; details: flowable of Preparation Example 3 on bred lawn sod in pots, 30 days after treatment
Text: as §3

Bentgrass = assay: as above; type: in vivo, Agrostis L.; design: key: −:None; ±:Very slight; +:Slight; 2+:Moderate; 3+:Heavy; ×:Dead; details: flowable of Preparation Example 3 on bred lawn sod in pots, 30 days after treatment
Text: as §3

Kentucky bluegrass = assay: as above; type: in vivo, Poa pratensis; design: key: −:None; ±:Very slight; +:Slight; 2+:Moderate; 3+:Heavy; ×:Dead; details: flowable of Preparation Example 3 on bred lawn sod in pots, 30 days after treatment
Text: as §3

Bermudagrass = assay: as above; type: in vivo; design: key: −:None; ±:Very slight; +:Slight; 2+:Moderate; 3+:Heavy; ×:Dead; details: flowable of Preparation Example 3 on bred lawn sod in pots, 30 days after treatment
Text: as §3

Perennial ryegrass = assay: as above; type: in vivo, Lolium SPP.; design: key: −:None; ±:Very slight; +:Slight; 2+:Moderate; 3+:Heavy; ×:Dead; details: flowable of Preparation Example 3 on bred lawn sod in pots, 30 days after treatment
Text: as §3

Tall fescue = assay: as above; type: in vivo, Festuca arundinacea; design: key: −:None; ±:Very slight; +:Slight; 2+:Moderate; 3+:Heavy; ×:Dead; details: flowable of Preparation Example 3 on bred lawn sod in pots, 30 days after treatment
Text: as §3

annual bluegrass [2] = assay: Field test, lawn grass seed overseeding test, weed growth inhibition (Test Example 4); type: in vivo, Poa annua L.; details: 30 days after treatment
Description: Evaluation Criteria for Weed Growth Inhibition Effect:
A land of breeding of South Japanese lawngrass was divided into plots of 1 m^2 (1×1 m), and seeds of perennial ryegrass or tall fescue, and seeds of annual bluegrass as a weed were sowed on the entire surface of each plot. On the day of sowing, a predetermined amount of the flowable prepared by the method described in the Preparation Example 3 was applied in an amount of 250 ml/m^2 of dilution with water. Thirty days after treatment with the composition, its weed growth inhibition effect and lawn phytotoxicity were observed. Evaluations of the weed growth inhibition effect and lawn phytotoxicity in the table were made according to mentioned criteria.

[3] = 50 g active ingredient/1000 m^2
[4] = 100 g active ingredient/1000 m^2
[5] = 250 g active ingredient/1000 m^2
[6] = 500 g active ingredient/1000 m^2
[7] = 750 g active ingredient/1000 m^2
[8] = 1000 g active ingredient/1000 m^2
[9] = 2000 g active ingredient/1000 m^2

CC(C)(NC(=O)NCc1ccccc1Cl)c1ccccc1 [cumyluron, 1-(2-chlorobenzyl)-3-(1-methyl-1-phenylethyl)urea]
Inhibitory effect annual bluegrass (annual bluegrass [1]; [3]): 9 (9:90% inhibition) | Inhibitory effect annual bluegrass (annual bluegrass [1]; [4]): 10 (10:100% inhibition) | Inhibitory effect annual bluegrass (annual bluegrass [1]; [5]): 10 (10:100% inhibition) | Inhibitory effect annual bluegrass (annual bluegrass [1]; [6]): 10 (10:100% inhibition) | Inhibitory effect annual bluegrass (annual bluegrass [1]; [7]): 10 (10:100% inhibition) | Inhibitory effect annual bluegrass (annual bluegrass [1]; [8]): 10 (10:100% inhibition) | Inhibitory effect Cyperus brevifolius (Cyperus brevifolius; [3]): 1 (1:10% inhibition) | Inhibitory effect Cyperus brevifolius (Cyperus brevifolius; [4]): 5 (5:50% inhibition) | Inhibitory effect Cyperus brevifolius (Cyperus brevifolius; [5]): 9 (9:90% inhibition) | Inhibitory effect Cyperus brevifolius (Cyperus brevifolius; [6]): 10 (10:100% inhibition) | Inhibitory effect Cyperus brevifolius (Cyperus brevifolius; [7]): 10 (10:100% inhibition) | Inhibitory effect Cyperus brevifolius (Cyperus brevifolius; [8]): 10 (10:100% inhibition) | Inhibitory effect foxtail (foxtail; [3]): 9 (9:90% inhibition) | Inhibitory effect foxtail (foxtail; [4]): 10 (10:100% inhibition) | Inhibitory effect foxtail (foxtail; [5]): 10 (10:100% inhibition) | Inhibitory effect foxtail (foxtail; [6]): 10 (10:100% inhibition) | Inhibitory effect foxtail (foxtail; [7]): 10 (10:100% inhibition) | Inhibitory effect foxtail (foxtail; [8]): 10 (10:100% inhibition) | Inhibitory effect flat-sedge (flat-sedge; [3]): 10 (10:100% inhibition) | Inhibitory effect flat-sedge (flat-sedge; [4]): 10 (10:100% inhibition) | Inhibitory effect flat-sedge (flat-sedge; [5]): 10 (10:100% inhibition) | Inhibitory effect flat-sedge (flat-sedge; [6]): 10 (10:100% inhibition) | Inhibitory effect flat-sedge (flat-sedge; [7]): 10 (10:100% inhibition) | Inhibitory effect flat-sedge (flat-sedge; [8]): 10 (10:100% inhibition) | Lawn phytotoxicity South Japanese lawngrass (South Japanese lawngrass; [4]): − | Lawn phytotoxicity South Japanese lawngrass (South Japanese lawngrass; [5]): − | Lawn phytotoxicity South Japanese lawngrass (South Japanese lawngrass; [6]): − | Lawn phytotoxicity South Japanese lawngrass (South Japanese lawngrass; [7]): − | Lawn phytotoxicity South Japanese lawngrass (South Japanese lawngrass; [8]): − | Lawn phytotoxicity South Japanese lawngrass (South Japanese lawngrass; [9]): − | Lawn phytotoxicity Japanese lawngrass (Japanese lawngrass; [4]): − | Lawn phytotoxicity Japanese lawngrass (Japanese lawngrass; [5]): − | Lawn phytotoxicity Japanese lawngrass (Japanese lawngrass; [6]): − | Lawn phytotoxicity Japanese lawngrass (Japanese lawngrass; [7]): − | Lawn phytotoxicity Japanese lawngrass (Japanese lawngrass; [8]): − | Lawn phytotoxicity Japanese lawngrass (Japanese lawngrass; [9]): − | Lawn phytotoxicity Bent-grass (Bentgrass; [4]): − | Lawn phytotoxicity Bent-grass (Bentgrass; [5]): − | Lawn phytotoxicity Bent-grass (Bentgrass; [6]): − | Lawn phytotoxicity Bent-grass (Bentgrass; [7]): − | Lawn phytotoxicity Bent-grass (Bentgrass; [8]): − | Lawn phytotoxicity Bent-grass (Bentgrass; [9]): − | Lawn phytotoxicity Kentucky bluegrass (Kentucky bluegrass; [4]): − | Lawn phytotoxicity Kentucky bluegrass (Kentucky bluegrass; [5]): − | Lawn phytotoxicity Kentucky bluegrass (Kentucky bluegrass; [6]): − | Lawn phytotoxicity Kentucky bluegrass (Kentucky bluegrass; [7]): − | Lawn phytotoxicity Kentucky bluegrass (Kentucky bluegrass; [8]): − | Lawn phytotoxicity Kentucky bluegrass (Kentucky bluegrass; [9]): − | Lawn phytotoxicity Bermuda-grass (Bermudagrass; [4]): − | Lawn phytotoxicity Bermuda-grass (Bermudagrass; [5]): − | Lawn phytotoxicity Bermuda-grass (Bermudagrass; [6]): − | Lawn phytotoxicity Bermuda-grass (Bermudagrass; [7]): − | Lawn phytotoxicity Bermuda-grass (Bermudagrass; [8]): − | Lawn phytotoxicity Bermuda-grass (Bermudagrass; [9]): − | Lawn phytotoxicity Perennial ryegrass (Perennial ryegrass; [4]): − | Lawn phytotoxicity Perennial ryegrass (Perennial ryegrass; [5]): − | Lawn phytotoxicity Perennial ryegrass (Perennial ryegrass; [6]): − | Lawn phytotoxicity Perennial ryegrass (Perennial ryegrass; [7]): − | Lawn phytotoxicity Perennial ryegrass (Perennial ryegrass; [8]): − | Lawn phytotoxicity Perennial ryegrass (Perennial ryegrass; [9]): − | Lawn phytotoxicity Tall fescue (Tall fescue; [4]): − | Lawn phytotoxicity Tall fescue (Tall fescue; [5]): − | Lawn phytotoxicity Tall fescue (Tall fescue; [6]): − | Lawn phytotoxicity Tall fescue (Tall fescue; [7]): − | Lawn phytotoxicity Tall fescue (Tall fescue; [8]): − | Lawn phytotoxicity Tall fescue (Tall fescue; [9]): − | Inhibitory effect annual bluegrass (annual bluegrass [2]; 100 g active ingredient/1000 m^2, flowable of Preparation Example 3 applied on the day of sowing): 10 (10:100% inhibition) | Inhibitory effect annual bluegrass (annual bluegrass [2]; 250 g active ingredient/1000 m^2, flowable of Preparation Example 3 applied on the day of sowing): 10 (10:100% inhibition) | Inhibitory effect annual bluegrass (annual bluegrass [2]; 500 g active ingredient/1000 m^2, flowable of Preparation Example 3 applied on the day of sowing): 10 (10:100% inhibition) | Inhibitory effect annual bluegrass (annual bluegrass [2]; 750 g active ingredient/1000 m^2, flowable of Preparation Example 3 applied on the day of sowing): 10 (10:100% inhibition) | Inhibitory effect annual bluegrass (annual bluegrass [2]; 1000 g active ingredient/1000 m^2, flowable of Preparation Example 3 applied on the day of sowing): 10 (10:100% inhibition)
